Experimental findings from ChEMBL document CHEMBL1201862, “PubChem BioAssay data set” (2004) are described below.

Among the test systems are ACHN; EKVX; HCT-15; Hs-578T; MCF7; MDA-N; MOLT-4; Malme-3M; NCI-H23; PC-3; RPMI-8226; SF-268; SF-539; SK-MEL-2; SW-620; T47D; U-251; UACC-257; UACC-62; UO-31.
Experiment in all cases: DTP human tumour cell line panel, 48 h

Molecules are shown by their SMILES.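 These data come from cells grown in 96-well plates and exposed to compound for 48 hours at five concentrations. GI50 = concentration required for 50% inhibition of growth.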 Activity calls are given as the source filed them. Cut-off read from the data, not from the text of the source: active = GI50 up to about 1.1 µM and inactive = higher.

As a reminder, the GI50 is the concentration that inhibits growth by half.

`N=C1OC(CN2CCN(c3ccccc3)CC2)CN1C(=S)Nc1ccccc1` (stereo not given): the GI50 with ACHN was 66.5 µM (inactive); in the test with EKVX it was 32.6 µM (inactive); in the test on HCT-15, 91 µM; in the test on Hs-578T, 13 µM (inactive); in the test with MCF7, 37.2 µM (inactive); in the test on MDA-N it was 84.9 µM (inactive). The GI50 in the test with MOLT-4 was 44.3 µM (inactive); in the test with Malme-3M, 38.9 µM (inactive); with NCI-H23 it was 50.6 µM (inactive); in the test with PC-3, 65.3 µM (inactive); in the test with RPMI-8226, 54 µM (inactive); in the test with SF-268, 39.4 µM (inactive). Further, the GI50 was 96.2 µM (inactive) with SF-539; 59.2 µM (inactive) in the test on SK-MEL-2; > 100 µM (inactive) with SW-620; 35.6 µM (inactive) in the test on T47D; 78.7 µM (inactive) in the test with U-251; 56 µM (inactive) in the test with UACC-257. In addition, the GI50 in the test on UACC-62 was 48.8 µM (inactive); in the test with UO-31 it was 37.2 µM (inactive).

Consider `Brc1ccc(/C(N=N/C(=N\Sc2ccccc2)c2ccc(Br)cc2)=N/Sc2ccccc2)cc1`, for which the GI50 in the test with ACHN is > 61.1 µM (inactive); in the test on EKVX it was > 100 µM (inactive); in the test with HCT-15 it was more than 100 µM; in the test with Hs-578T, > 100 µM (inactive); with MCF7, > 100 µM (inactive); with MDA-N, > 100 µM (inactive). The GI50 with MOLT-4, in the test with Malme-3M, with NCI-H23, with PC-3, in the test on RPMI-8226 and in the test on SF-268 was > 100 µM (inactive) in each case. The GI50 with SF-539, in the test with SK-MEL-2, in the test with SW-620, with T47D, in the test on U-251 and in the test with UACC-257 was > 100 µM (inactive) each time. In addition, the GI50 in the test with UACC-62 and with UO-31 was > 100 µM (inactive) each time.

Consider `C/C(=N\N=C1/C(=O)OC(c2ccccc2)=C1C(=O)c1ccccc1)c1ccc([N+](=O)[O-])cc1`, for which the GI50 in the test with ACHN is 42.6 µM (inactive); in the test with EKVX, 36.3 µM (inactive); in the test with HCT-15, 23.7 µM; with Hs-578T it was 54.3 µM (inactive); in the test with MCF7, 26.7 µM (inactive); in the test on MDA-N, 87.9 µM (inactive). Moreover, the GI50 was 19.9 µM (inactive) in the test on MOLT-4; 37.4 µM (inactive) in the test with Malme-3M; 92.9 µM (inactive) in the test on NCI-H23; 65.9 µM (inactive) in the test with PC-3; 21.5 µM (inactive) in the test on RPMI-8226; > 100 µM (inactive) in the test with SF-268. The GI50 in the test on SF-539 is 65.2 µM (inactive); in the test with SK-MEL-2, > 100 µM (inactive); in the test with SW-620, 46.7 µM (inactive); in the test on T47D it was 42.9 µM (inactive); in the test on U-251, 41.5 µM (inactive); in the test on UACC-257, > 100 µM (inactive). The GI50 was 38.9 µM (inactive) with UACC-62 and 44.7 µM (inactive) in the test with UO-31.

As for `COc1cccc2c1C(=O)c1c(O)c3c(c(O)c1C2=O)C[C@@](O)(/C(C)=N/NC(=O)c1ccccc1)C[C@@H]3OC1CC(N)C(O)C(C)O1` (stereo not given in full), the GI50 with ACHN was 0.0802 µM (active); with EKVX it was 0.693 µM (active); with HCT-15 it was 1.84 µM; in the test on Hs-578T it was 0.256 µM (active); with MCF7, 0.0467 µM (active); in the test on MDA-N, 0.308 µM (active). For the same compound, the GI50 in the test on MOLT-4 is 0.0324 µM (active); in the test with Malme-3M, 0.213 µM (active); with NCI-H23, 0.201 µM (active); with PC-3 it was 0.171 µM (active); in the test with RPMI-8226, 0.137 µM (active); in the test on SF-268, 0.29 µM (active). In addition, the GI50 with SF-539 is 0.261 µM (active); in the test with SK-MEL-2 it was 0.505 µM (active); in the test on SW-620, 0.136 µM (active); with T47D it was 0.159 µM (active); with U-251 it was 0.147 µM (active); with UACC-257, 0.594 µM (active). The GI50 is 0.242 µM (active) in the test with UACC-62 and 1.77 µM (inactive) with UO-31.
